The test system of the assay is HeLa. The assay can be described thus: Cytotoxicity against HeLa cells by MTT […] assay. Type of assay: functional, cell-based. Conditions: Homo sapiens. In general terms: Tetrazolium dyes change colour on reduction, which living cells bring about.

By IC50 is commonly meant the midpoint of a concentration-inhibition curve. Read a high IC50 as weaker potency in that assay.

Molecule `CO[C@H](c1ccc(O)cc1)[C@H]1NC(=O)[C@H](CCC(N)=O)N(C)C(=O)[C@H](CC(C)C)NC(=O)[C@@H](CCCNC(=N)N)NC(=O)[C@@H]([C@@H](C)O)NC(=O)[C@H](NC(=O)[C@H]2NC(=O)[C@H](C)[C@@H]2C)[C@@H](C)OC(=O)[C@H](C)N(C)C1=O` [CALLIPELTIN B] showed an IC50 of 98 µM.

For `CC(C)C[C@@H]1NC(=O)[C@@H](CCCNC(=N)N)NC(=O)[C@@H]([C@@H](C)O)NC(=O)[C@H](NC(=O)[C@H]2NC(=O)[C@H](C)[C@@H]2C)[C@@H](C)OC(=O)[C@H](C)N(C)C(=O)[C@@H](Cc2ccc(O)cc2)NC(=O)[C@H](CCC(N)=O)N(C)C1=O` [DESMETHOXYCALLIPELTIN B], the half-inhibitory concentration (IC50) stood at 128 µM.
